According to US7435872B2, “Role of p62 in aging-related disease” (Samsung Electronics, Co., Ltd., priority 2002, dated 2008):
Square brackets hold non-standard residues; d marks the D form. Peptide text beside a SMILES is read from it. * marks the point of attachment. Nle = CCCC[C@H](N)C(=O)O; Cbz = O=C(OCc1ccccc1)*

Assays:
[1] = tested on: p62+/+ and p62-/- mouse embryo fibroblast (MEF); assay: Cell viability by MTT assay after glutathione depletion; format: cell-based; conditions: different concentrations of DEM or BSO; p62-null versus wild type MEFs
Method: (§1) FIGS. 44A-44B show effects of glutathione depletion on cell viability in p62+/+ and p62−/− mouse embryo fibroblast (MEF). Cell viability was assessed with a methylthiazolium (MTT) assay, which measures mitochondrial dehydrogenase activity of viable cells spectrophotometrically. MEF (3×10^3 cells/well) in 96-well plates were treated with different concentrations of DEM (A) or BSO (B) washed with PBS and then incubated with 0.5 mg/ml MTT in PBS for 4 h. To solubilize the formazan products, […] DMSO was added. The absorption values at 570 nm were determined.
as §1, with “In addition to the above, FIGS.” for “FIGS.”, “determined. […] This death of p62-null MEFs is an apoptotic process (FIG. 48). Thus, p62 appears to have the function of regulating cellular redox status and/or cellular reactive oxygen species (ROS) generation and scavenging systems.” for “determined.”

[2] = tested on: HEK 293 cells; assay: Colocalization of p62 with multi-ubiquitin chain; format: cell-based; conditions: increasing concentrations of LLnL, 16 hours
[3] = tested on: p62 gene; assay: Activation of the p62 gene, immunoblot and RNA analysis; format: cell-based; conditions: COS7 cells, 20 mM LLnL, with or without actinomycin D
Text: Equivalent loading was confirmed by anti-beta-actin immunoblotting. […] Equivalent loading of RNA was confirmed by staining 28S and 18S ribosomal RNA with ethidium bromide (lower panel).

[4] = tested on: COS7 cells; assay: Sequestosome (p62 inclusion) formation, anti-p62 immunostaining; design: p62 accumulation in sequestosome / cellular inclusion formation in the presence of translational inhibitor: dose or concentration left out as unconfirmed; conditions: 12 hours; for formation of sequestosome: 20 mM ALLN, 5 mM lactacystin, 10 mM MG 132, 50 nM epoxomicin
[5] = tested on: mouse embryonic fibroblasts (MEFs); assay: Ubiquitin-positive inclusion formation in MEFs; format: cell-based; design: dose or concentration left out as unconfirmed; conditions: 12 hours
Text: FIGS. 37A-37B show p62 aggregates formed in MEF in the presence of GSH-depletor. […] Bar=10 μm.
Ubiquitin-p62 inclusion is formed in mouse embryonic fibroblasts. […] MEFs from p62 null embryos were transfected with a p62 expression vector.
Further, p62-positive intracellular inclusion are also formed by oxidative stress. For instance, FIGS. 37A-37B show the formation of p62- or ubiquitin-positive aggregates in MEF in the presence of glutathione (GSH) depletory, diethylmaleate (DEM). […] Thus, p62 has a function to collect misfolded and/or ubiquitinated intracellular proteins and make intracellular inclusions.

[6] = tested on: COS7 cells; assay: p62 level in triton X-100 soluble and insoluble fractions, immunoblot; format: cell-based; design: dose or concentration left out as unconfirmed; conditions: plus cycloheximide

CCCCS(=N)(=O)CCC(N)C(=O)O (stereo not shown) [BSO, buthioninesulfoximine]
cell viability (MTT) on glutathione depletion [1]: p62-null MEFs die more readily compared with wild type MEFs

CCCC[C@@H](C=O)NC(=O)[C@H](CC(C)C)NC(=O)[C@H](CC(C)C)NC(C)=O [LLnL] (Ac-Leu-Leu-[Nle]-aldehyde)
colocalization of p62 with multi-ubiquitin chain [2]: colocalization of p62 with multi-ubiquitin chain | p62 gene activation / p62 level [3]: activation of the p62 gene | p62 accumulation in sequestosome [4]: p62 accumulates in sequestosome | formation of sequestosome [4]: can induce formation of sequestosome | ubiquitin-positive inclusion formation, p62-heterozygote MEF [5]: can form the inclusion but less efficiently | ubiquitin-positive inclusion formation, p62-null MEF [5]: cannot form the inclusion at all | ubiquitin-positive inclusion formation, p62 wild type MEF [5]: formed ubiquitin-positive inclusions well

CC(C)C[C@@H](C=O)NC(=O)[C@H](CC(C)C)NC(=O)[C@H](CC(C)C)NC(=O)OCc1ccccc1 [MG 132] (Cbz-Leu-Leu-Leu-aldehyde)
formation of sequestosome [4]: can induce formation of sequestosome

C[C@@H]1C[C@@H]([C@H](O)CC2CC(=O)NC(=O)C2)C(=O)[C@@H](C)C1 [cycloheximide]
p62 cellular level [6]: not increased | cellular inclusion formation in the presence of translational inhibitor ([4]; plus cycloheximide): not formed

CC[C@H](C)[C@H](NC(=O)[C@H]([C@@H](C)CC)N(C)C(C)=O)C(=O)N[C@H](C(=O)N[C@@H](CC(C)C)C(=O)[C@@]1(C)CO1)[C@@H](C)O [epoxomicin]
formation of sequestosome [4]: can induce formation of sequestosome

CC(=O)N[C@@H](CSC(=O)[C@]1([C@@H](O)C(C)C)NC(=O)[C@H](C)[C@@H]1O)C(=O)O [lactacystin]
formation of sequestosome [4]: can induce formation of sequestosome
